Reference: ChEMBL document CHEMBL3272218, “Biologically active derivatives of angiotensin for labeling cellular receptors” (J Med Chem, 1978)
Peptide text beside a SMILES is read from it. * marks the point of attachment. X2 = O=C(O)c1cc(NC(=S)*)ccc1-c1c2ccc(=O)cc-2oc2cc(O)ccc12; X1 = O=Cc1ccc(C(=O)*)cc1

Target: T1, Type-1 angiotensin II receptor (Oryctolagus cuniculus) (UniProt P34976)
T1 sequence (whole entry): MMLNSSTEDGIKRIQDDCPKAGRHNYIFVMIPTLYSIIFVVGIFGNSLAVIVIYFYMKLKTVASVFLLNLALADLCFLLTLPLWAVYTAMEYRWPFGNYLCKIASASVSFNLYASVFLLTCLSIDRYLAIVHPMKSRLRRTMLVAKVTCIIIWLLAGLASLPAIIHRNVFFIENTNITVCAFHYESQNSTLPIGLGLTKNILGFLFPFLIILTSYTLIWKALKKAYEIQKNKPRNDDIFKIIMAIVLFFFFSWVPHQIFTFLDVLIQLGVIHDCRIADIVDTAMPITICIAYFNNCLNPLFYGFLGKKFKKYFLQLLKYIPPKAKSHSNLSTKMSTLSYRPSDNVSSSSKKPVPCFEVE
Assay: Relative binding affinity of the compound assessed as ratio of [Asp1,Ile5]angiotensin II ED50 to compound ED50 for angiotensin 2 receptor in rabbit aortic strips

Row | Structure (SMILES) | relative binding affinity (RBA)
1 | CC(C)[C@H](NC(=O)[C@H](CCCNC(=N)N)NC(=O)[C@H](CC(N)=O)NC(=O)c1ccc(C=O)cc1)C(=O)N[C@@H](Cc1ccc(O)cc1)C(=O)N[C@H](C(=O)N[C@@H](Cc1cnc[nH]1)C(=O)N1CCC[C@H]1C(=O)N[C@@H](Cc1ccccc1)C(=O)O)C(C)C (X1-NRVYVHPF-OH) | 8
2 | CC(C)[C@H](NC(=O)[C@H](CCCNC(=N)N)NC(=O)[C@H](CC(N)=O)NC(=S)Nc1ccc(-c2c3ccc(=O)cc-3oc3cc(O)ccc23)c(C(=O)O)c1)C(=O)N[C@@H](Cc1ccc(O)cc1)C(=O)N[C@H](C(=O)N[C@@H](Cc1cnc[nH]1)C(=O)N1CCC[C@H]1C(=O)N[C@@H](Cc1ccccc1)C(=O)O)C(C)C (X2-NRVYVHPF-OH) | 1
3 | CCCC[C@H](NC(=O)c1cc(N=[N+]=[N-])ccc1[N+](=O)[O-])C(=O)N[C@@H](CC(=O)O)C(=O)N[C@@H](CCCNC(=N)N)C(=O)N[C@H](C(=O)N[C@@H](Cc1ccc(O)cc1)C(=O)N[C@H](C(=O)N[C@@H](Cc1cnc[nH]1)C(=O)N1CCC[C@H]1C(=O)N[C@@H](Cc1ccccc1)C(=O)O)[C@@H](C)CC)C(C)C | 0.5

Now from value to compound:

Row | relative binding affinity (RBA) | Structure (SMILES)
4 | 2 | CC[C@H](C)[C@H](NC(=O)[C@H](Cc1ccc(O)cc1)NC(=O)[C@@H](NC(=O)[C@@H](N)CCCN=C(N)N)C(C)C)C(=O)N[C@@H](Cc1c[nH]cn1)C(=O)N1CCC[C@H]1C(=O)N[C@@H](Cc1ccccc1)C(=O)O
5 | 3 | CC[C@H](C)[C@H](NC(=O)[C@H](Cc1ccc(O)cc1)NC(=O)[C@@H](NC(=O)[C@H](CCCNC(=N)N)NC(=O)[C@H](CC(=O)O)N1C=C(c2ccccc2)C(=O)C1(O)c1ccccc1)C(C)C)C(=O)N[C@@H](Cc1cnc[nH]1)C(=O)N1CCC[C@H]1C(=O)N[C@@H](Cc1ccccc1)C(=O)O (some centres not stated)
6 | 0.03 | CC[C@H](C)[C@H](NC(=O)[C@H](Cc1ccc(O)cc1)NC(=O)[C@@H](N)C(C)C)C(=O)N[C@@H](Cc1cnc[nH]1)C(=O)N1CCC[C@H]1C(=O)N[C@@H](Cc1ccccc1)C(=O)O
7 | 23 | CC(C)[C@H](NC(=O)[C@H](CCCNC(=N)N)NC(=O)[C@@H](N)CC(N)=O)C(=O)N[C@@H](Cc1ccc(O)cc1)C(=O)N[C@H](C(=O)N[C@@H](Cc1c[nH]cn1)C(=O)N1CCC[C@H]1C(=O)N[C@@H](Cc1ccccc1)C(=O)O)C(C)C (H-NRVYVHPF-OH)
